Calls of active or inactive are those of the source. No cut-off for these calls is given here.
Key:
Type in all cases: functional
[1] = test system: AGS; experiment: Anticancer activity against TRAIL-resistant human AGS cells assessed as cell viability at 150 uM after 24 hrs by fluorometric microculture cytotoxicity assay in presence of 100 ng/ml TRAIL
[2] = test system: AGS; experiment: Anticancer activity against TRAIL-resistant human AGS cells assessed as cell viability at 75 uM after 24 hrs by fluorometric microculture cytotoxicity assay in presence of 100 ng/ml TRAIL
[3] = test system: AGS; experiment: Anticancer activity against TRAIL-resistant human AGS cells assessed as cell viability at 37.5 uM after 24 hrs by fluorometric microculture cytotoxicity assay in presence of 100 ng/ml TRAIL
[4] = test system: AGS; experiment: Anticancer activity against TRAIL-resistant human AGS cells assessed as cell viability at 17.5 uM after 24 hrs by fluorometric microculture cytotoxicity assay in presence of 100 ng/ml TRAIL

SMILES	Activity [1]	Activity [2]	Activity [3]	Activity [4]
CC(C)=CCc1cc(C[C@H](N)C(=O)O)ccc1O	inactive	inactive		
CO[C@@H]1[C@@H](OC(N)=O)[C@@H](O)[C@H](Oc2ccc3c(O)c(NC(=O)c4ccc(O)c(CC=C(C)C)c4)c(=O)oc3c2C)OC1(C)C [NOVOBIOCIN]		63%	72%	
O=c1cc(-c2ccc(O)c(O)c2)oc2cc(O)cc(O)c12 [LUTEOLIN]				70%
CC(=O)N[C@@H](Cc1ccc(O)c(CC=C(C)C)c1)C(=O)O	67%	77%		

Reference: ChEMBL document CHEMBL1154142, “Tyrosine derivatives isolated from Streptomyces sp. IFM 10937 in a screening program for TRAIL-resistance-overcoming activity” (2008)
